# According to patent publication US9663496B2, “AMPK-activating heterocyclic compounds and methods for using the same” (Rigel Pharmaceuticals, Inc., priority 2010, dated 2017):
# Target: AMPK
# Test: AMPK activation, enzyme-linked immunosorbent assay
# Type: biochemical
# Conditions: EC50 for AMPK activation, ELISA
# Summary of the method: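 Compounds were tested for their capacity to activate the kinase using standard, commercially available kit reagents and procedures.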
row,EC50,SMILES
1,< 500 nM,"COc1ccc(CC2CCN(C(=O)c3ccc(C(=O)NC4CCN(Cc5ccc(C#N)cc5)CC4)nc3)CC2)cc1F [Compound 146, N-(1-(4-cyanobenzyl)piperidin-4-yl)-5-(4-(3-fluoro-4-methoxybenzyl)piperidine-1-carbonyl)picolinamide]"
2,< 500 nM,"COc1ccc(C(=O)C2CCN(C(=O)c3ccc(C(=O)NC4CCN(Cc5cccc(OC(F)(F)F)c5)CC4)cn3)CC2)cc1 [Compound 424, 6-(4-(4-methoxybenzoyl)piperidine-1-carbonyl)-N-(1-(3-(trifluoromethoxy)benzyl)piperidin-4-yl)nicotinamide]"
3,< 500 nM,"O=C(NC1CCN(Cc2ccc(OC(F)(F)F)cc2)CC1)c1ccc(C(=O)N2CCC(Oc3ccc(C(=O)C4CC4)cc3)CC2)nc1 [Compound 455, 6-(4-(4-(cyclopropanecarbonyl)phenoxy)piperidine-1-carbonyl)-N-(1-(4-(trifluoromethoxy)benzyl)piperidin-4-yl)nicotinamide]"
4,< 500 nM,"O=C(N[C@H]1CC[C@@H](Oc2ccc(F)cc2)CC1)c1ccc(C(=O)N2CCC(Oc3ccc(F)cc3)CC2)cn1 [Compound 312, N-((cis)-4-(4-fluorophenoxy)cyclohexyl)-5-(4-(4-fluorophenoxy)piperidine-1-carbonyl)picolinamide]"
5,1000 to 5000 nM,"N#Cc1ccc(CN2CCC(NC(=O)c3ccc(C(=O)N4CCN(C(=O)C5CCCCC5)CC4)cn3)CC2)cc1 [Compound 89, N-(1-(4-cyanobenzyl)piperidin-4-yl)-5-(4-(cyclohexanecarbonyl)piperazine-1-carbonyl)picolinamide]"
6,< 500 nM,"CS(=O)(=O)c1ccc(OC2CCN(C(=O)c3ccc(C(=O)Nc4ccc(S(=O)(=O)c5ccc(F)cc5)nc4)nc3)CC2)cc1 [Compound 261, N-(6-(4-fluorophenylsulfonyl)pyridin-3-yl)-5-(4-(4-(methylsulfonyl)phenoxy)piperidine-1-carbonyl)picolinamide]"
7,< 500 nM,"N#Cc1ccc(OC2CN(C(=O)c3ccc(C(=O)NC4CCN(Cc5cc(F)cc(F)c5)CC4)nc3)C2)cc1 [Compound 313, 5-(3-(4-cyanophenoxy)azetidine-1-carbonyl)-N-(1-(3,5-difluorobenzyl)piperidin-4-yl)picolinamide]"
8,< 500 nM,N#Cc1ccc(O[C@H]2CC[C@@H](NC(=O)c3ccc(C(=O)N4CCC(C(=O)c5ccc(F)cc5)CC4)cn3)CC2)cc1 [Compound 151]
9,< 500 nM,"CC(C)(c1ccccc1)N1CCN(C(=O)c2ccc(C(=O)NC3CCN(Cc4ccc(C#N)cc4)CC3)nc2)CC1 [Compound 133, N-(1-(4-cyanobenzyl)piperidin-4-yl)-5-(4-(2-phenylpropan-2-yl)piperazine-1-carbonyl)picolinamide]"
10,> 10000 nM,"O=C(Nc1ccc(C(=O)N2CCN(Cc3ccc(F)cc3)CC2)cn1)c1ccc(-c2ccccc2)cc1 [Compound 170, N-(5-(4-(4-fluorobenzyl)piperazine-1-carbonyl)pyridin-2-yl)biphenyl-4-carboxamide]"
11,> 10000 nM,"N#Cc1ccc(OC2CCN(C(=O)c3ccc(C(=O)NC4CCNCC4)cn3)CC2)cc1 [Compound 335, 6-(4-(4-cyanophenoxy)piperidine-1-carbonyl)-N-(piperidin-4-yl)nicotinamide]"
12,< 500 nM,"CS(=O)(=O)c1ccc(C(=O)C2CCN(C(=O)c3ccc(C(=O)NC4CCN(Cc5ccc(C#N)cc5)CC4)nc3)CC2)cc1 [Compound 228, N-(1-(4-cyanobenzyl)piperidin-4-yl)-5-(4-(4-(methylsulfonyl)benzoyl)piperidine-1-carbonyl)picolinamide]"
13,5000 to 10000 nM,"O=C(NCc1ccccc1)c1ccc(C(=O)N2CCN(Cc3ccc(F)cc3)CC2)cn1 [Compound 115, N-benzyl-5-(4-(4-fluorobenzyl)piperazine-1-carbonyl)picolinamide]"
14,< 500 nM,"O=C(NC1CCN(Cc2ccc(F)cc2)CC1)c1ccc(C(=O)N2CC[C@H](Oc3ccc(F)cc3)C2)cn1 [Compound 182, (S)-N-(1-(4-fluorobenzyl)piperidin-4-yl)-5-(3-(4-fluorophenoxy)pyrrolidine-1-carbonyl)picolinamide]"
15,1000 to 5000 nM,"COc1ccc(C(=O)C2CCN(C(=O)c3ccc(C(=O)N[C@@H]4CCN(Cc5csc(C)n5)C[C@@H]4F)cn3)CC2)cc1 [Compound 427, N-((3S,4R)-3-fluoro-1-((2-methylthiazol-4-yl)methyl)piperidin-4-yl)-6-(4-(4-methoxybenzoyl)piperidine-1-carbonyl)nicotinamide]"
16,< 500 nM,"O=C(NC1CCN(Cc2cc(F)cc(F)c2)CC1)c1ccc(C(=O)N2CCC(Oc3ccc(C(F)(F)F)cc3)CC2)cn1 [Compound 294, N-(1-(3,5-difluorobenzyl)piperidin-4-yl)-5-(4-(4-(trifluoromethyl)phenoxy)piperidine-1-carbonyl)picolinamide]"

row,EC50,SMILES
1,< 500 nM,"N#Cc1ccc(O[C@H]2CC[C@@H](NC(=O)c3ccc(C(=O)N4CCN(Cc5ccc(F)cc5)CC4)nc3)CC2)cc1 [Compound 332, N-((cis)-4-(4-cyanophenoxy)cyclohexyl)-6-(4-(4-fluorobenzyl)piperazine-1-carbonyl)nicotinamide]"
2,< 500 nM,"O=C(NC1CCN(Cc2ccc(Cl)cc2)CC1)c1ccc(C(=O)N2CCN(Cc3ccc(F)cc3)CC2)cn1 [Compound 52, N-(1-(4-chlorobenzyl)piperidin-4-yl)-5-(4-(4-fluorobenzyl)piperazine-1-carbonyl)picolinamide]"
3,< 500 nM,"O=C(Nc1ccc(Oc2ccc(F)cc2)nc1)c1ccc(C(=O)N2CCC(C(=O)c3ccc(F)cc3F)CC2)cn1 [Compound 342, 5-(4-(2,4-difluorobenzoyl)piperidine-1-carbonyl)-N-(6-(4-fluorophenoxy)pyridin-3-yl)picolinamide]"
4,< 500 nM,"N#Cc1ccc(CN2CCC(NC(=O)c3ccc(C(=O)N4CCC(C(=O)c5ccc(F)cc5F)CC4)cn3)CC2)cc1 [Compound 271, N-(1-(4-cyanobenzyl)piperidin-4-yl)-5-(4-(2,4-difluorobenzoyl)piperidine-1-carbonyl)picolinamide]"
5,1000 to 5000 nM,"CC(=O)c1ccc(Oc2ccc(NC(=O)c3ccc(C(=O)N4CCN(c5ccc(S(C)(=O)=O)cc5)CC4)nc3)cn2)cc1 [Compound 487, N-(6-(4-acetylphenoxy)pyridin-3-yl)-6-(4-(4-(methylsulfonyl)phenyl)piperazine-1-carbonyl)nicotinamide]"
6,< 500 nM,"COc1ccc(CN2CCC(NC(=O)c3ccc(C(=O)N4CCC(C(=O)c5ccc(F)c(F)c5)CC4)cn3)CC2)cc1 [Compound 329, 5-(4-(3,4-difluorobenzoyl)piperidine-1-carbonyl)-N-(1-(4-methoxybenzyl)piperidin-4-yl)picolinamide]"
7,1000 to 5000 nM,"O=C(c1ccc(Nc2ccc(Oc3ccccc3)cc2)nc1)N1CCN(Cc2ccc(F)cc2)CC1 [Compound 34, (4-(4-fluorobenzyl)piperazin-1-yl)(6-(4-phenoxyphenylamino)pyridin-3-yl)methanone]"
8,500 to 1000 nM,"N#Cc1ccc(OC2CCN(c3ccc(C(=O)N4CCN(Cc5ccc(F)cc5)CC4)cn3)CC2)cc1 [Compound 188, 4-(1-(5-(4-(4-fluorobenzyl)piperazine-1-carbonyl)pyridin-2-yl)piperidin-4-yloxy)benzonitrile]"
9,> 10000 nM,"N#Cc1ccc(CN2CCC(NC(=O)c3ccc(C(=O)N4CCC(Oc5ccc(NC(=O)CCOCCOCCOCCOCCNC(=O)CCC[C@@H]6SC[C@@H]7NC(=O)N[C@@H]76)cc5)CC4)nc3)CC2)cc1 [Compound 371, N-(1-(4-cyanobenzyl)piperidin-4-yl)-6-(4-(4-(17-oxo-20-((3aS,4S,6aR)-2-oxohexahydro-1H-thieno[3,4-d]imidazol-4-yl)-4,7,10,13-tetraoxa-16-azaicosanamido)phenoxy)piperidine-1-carbonyl)nicotinamide]"
10,< 500 nM,"N#Cc1ccc(CN2CCC(C(=O)Nc3ccc(C(=O)N4CCC(C(=O)c5ccc(F)cc5)CC4)cn3)CC2)cc1 [Compound 175, 1-(4-cyanobenzyl)-N-(5-(4-(4-fluorobenzoyl)piperidine-1-carbonyl)pyridin-2-yl)piperidine-4-carboxamide]"
11,< 500 nM,"O=C(Nc1ccc(Oc2ccc(F)cc2)nc1)c1cnc(C(=O)N2CCC(Oc3ccc(C(F)(F)F)cc3)CC2)cn1 [Compound 205, N-(6-(4-fluorophenoxy)pyridin-3-yl)-5-(4-(4-(trifluoromethyl)phenoxy)piperidine-1-carbonyl)pyrazine-2-carboxamide]"
12,> 10000 nM,"COc1ccc(OC2CCN(C(=O)c3ccc(C(=O)NC4CCN(Cc5ccc(C#N)cc5)CC4)cn3)CC2)c(NC(=O)CCOCCOCCOCCOCCNC(=O)CCCC[C@@H]2SC[C@@H]3NC(=O)N[C@@H]32)c1 [Compound 394, N-(1-(4-cyanobenzyl)piperidin-4-yl)-6-(4-(4-methoxy-2-(17-oxo-21-((3aS,4S,6aR)-2-oxohexahydro-1H-thieno[3,4-d]imidazol-4-yl)-4,7,10,13-tetraoxa-16-azahenicosanamido)phenoxy)piperidine-1-carbonyl)nicotinamide]"
13,5000 to 10000 nM,O=C(Nc1cccc(-c2ccccc2)c1)c1ccc(C(=O)N2CCN(Cc3ccc(F)cc3)CC2)cn1 [Compound 12]
14,< 500 nM,"N#Cc1ccc(CN2CCC(NC(=O)c3ccc(C(=O)N4CCC(C(=O)c5ccc(N6CCCC6)cc5)CC4)cn3)CC2)cc1 [Compound 365, N-(1-(4-cyanobenzyl)piperidin-4-yl)-5-(4-(4-(pyrrolidin-1-yl)benzoyl)piperidine-1-carbonyl)picolinamide]"
15,1000 to 5000 nM,"O=C(NC1CCN(Cc2ccccc2)CC1)c1ccc(C(=O)N2CCN(c3ccccc3)CC2)cn1 [Compound 97, N-(1-benzylpiperidin-4-yl)-5-(4-phenylpiperazine-1-carbonyl)picolinamide]"
16,< 500 nM,"N#Cc1ccc(CN2CCC(NC(=O)c3ncc(C(=O)N4CCN(Cc5ccc(F)cc5)CC4)cc3CCCNC(=O)CCOCCOCCOCCOCCNC(=O)CCCC[C@@H]3SC[C@@H]4NC(=O)N[C@@H]43)CC2)cc1 [Compound 291, N-(1-(4-cyanobenzyl)piperidin-4-yl)-3-(5,21-dioxo-25-((3aS,4S,6aR)-2-oxohexahydro-1H-thieno[3,4-d]imidazol-4-yl)-8,11,14,17-tetraoxa-4,20-diazapentacosyl)-5-(4-(4-fluorobenzyl)piperazine-1-carbonyl)picolinamide]"
